The results in this text go back to US8309790B2, “Animal models for demyelination disorders” (University of Chicago, priority 2005, dated 2012).

In assay [1] the test system is corpus callosum of double transgenic mice treated with cuprizone. Put plainly: Cuprizone-induced demyelination and remyelination in GFAP/tTA; TRE/IFN-γ double transgenic mice. Format: in vivo. As for the experimental part: The effects of IFN-γ on demyelination were evaluated in a cuprizone animal model using transgenic mice that allow for temporally regulated delivery of IFN-γ using the tetracycline controllable system (Lin, et al. (2004) J. Neurosci. 24: 10074-10083). The transgenic mice were generated by mating line 110 GFAP/tTA mice on the C57BL/6 background with line 184 TRE/IFN-γ on the C57BL/6 background to produce GFAP/tTA; TRE/IFN-γ double transgenic mice (Lin, et al. (2004) J. Neurosci. 24: 10074-10083). Transcriptional activation of the TRE/IFN-γ transgene by tTA was repressed in the control (DOX+) mice by adding 0.05 mg/ml doxycycline to the drinking water which was provided ad libitum from the day of conception. The DOX+ double transgenic mice were GFAP/tTA; TRE/IFN-γdouble transgenic animals fed cuprizone chow and never released from the doxycycline solution. DOX− double transgenic mice were GFAP/tTA; TRE/IFN-γdouble transgenic animals fed cuprizone chow and released from doxycycline to induce expression of IFN-γ.
Demyelination was induced in 6-week-old DOX+ and DOX− male mice by feeding the mice a diet of milled mouse chow containing 0.2% cuprizone (Sigma-Aldrich, St. Louis, […].) for up to 6 weeks. Subsequently, both groups of mice were returned to a normal diet for up to 3 weeks to allow remyelination to occur. All animal procedures were conducted in complete compliance with the NIH Guide for the Care and Use of Laboratory Animals and were approved by the Institutional Animal Care and Use Committee of The University of Chicago.
The effects of INF-γ and MBP on demyelination were evaluated as the level of INF-γ and MHC-1, the loss of oligodendrocytes, and the expression of myelin genes.
The expression of IFN-γ in these animals was examined by Enzyme-Linked Immunosorbent Assay (ELISA) analysis as follows. Spinal cord and forebrains were removed, rinsed in ice cold PBS, and immediately homogenized in five volumes of PBS with complete protease cocktail (Roche, Indianapolis, Ind.) using a motorized homogenizer. After incubation on ice for 5 min the extracts were cleared by centrifugation at 14000 rpm for 10 min. The protein content of each extract was determined by the DC protein assay (Bio-Rad, Hercules, Calif.). […]
The effect of INF-γ on the population of oligodendrocytes was evaluated by immunohistochemical analysis of oligodendrocytes using an anti-CC1 antibody (APC7, 1:50; EMD Biosciences, Inc., La Jolla, Calif.) Immunohistochemistry was performed on brain sections obtained from mice that were first anesthetized mice and perfused through the left cardiac ventricle with 4% paraformaldehyde in 0.1 M PBS. […]

The subject of another assay is mice with EAE. Put plainly: EAE, CNS delivery of INF-γ at the recovery stage (doxycycline withdrawn at PID7). Type of assay: in vivo. An excerpt: Double transgenic mice that allow for temporally regulated delivery of INF-γ to the CNS (Lin et al., J Neurosci 24:10074-10083 (2004)) were used to assess the role of INF-γ in the pathogenesis of EAE. GFAP/tTA; TRE/IFN-γ double transgenic mice, as described in Example 1 were used to determine the effect of INF-γ on the demyelination caused by EAE. All mice were fed doxycycline from the day of conception to repress the expression of INF-γ, and were immunized with myelin oligodendrocyte protein (MOG35-55) to induce EAE. At day 7 postimmunization (PID7), doxycycline was withdrawn from the experimental group (PID7 DOX−).
The level of INF-γ was determined in the control (DOX+) and the PID7 DOX− mice using an ELISA immunoassay as described in Example 1, and the severity of the disease was assessed as a function of a clinical score. Clinical severity scores were recorded daily according to a 0-5 point scale, where 0=healthy, 1=flaccid tail, 2=ataxia and/or paresis of hind limbs, 3=paralysis of hind limbs and/or paresis of forelimbs, 4=tetraparalysis, and 5=moribund or dead.
The spinal cord from DOX+ and DOX− animals with EAE was immunostained for MBP, and the remyelination of axons was evaluated. The number of oligodendrocytes was determined in the spine from DOX+ and DOX− mice as the number of CC1 positive cells. Axonal damage was evaluated by immunostaining of non-phosphorylated neurofilament-H. Antibodies to non-phosphorylated neurofilament-H were SMI32 diluted to 1:1000 and obtained from Stemberger Monoclonals.
INF-γ is known to induce MHC antigens and activate macrophages and T lymphocytes. The inflammatory effect of INF-γ was studied in the CNS during remyelination by determining the infiltration of T cells and macrophages, and measuring the expression of MHC-1, TNF-a, IL-2, IL-12 and IL-17. Immunohistochemistry was performed in tissues from the DOX+ and DOX− mice with EAE as described in Example 4. Experimental procedures were followed as described in the examples above.

Where [2] appears, read: spinal cord, DOX− compared to DOX+, PID50.

interferon-γ [IFN-γ]: the remyelinated axons in assay [1] (DOX− mice, corpus callosum, 8 weeks, EM) was 26.9%±7%. Moreover, in assay [1] (DOX− mice, corpus callosum, week 6 and week 8), the “expression of myelin genes MBP, PLP and CGT” value is recorded as “significantly depressed”. For the same substance, the “expression of MHC class I (MHC-I) in the corpus callosum, real-time PCR” value in assay [1] (DOX− mice, during remyelination) is listed as “significant increase”. Further, the “effect on the initial pathological processes induced by cuprizone exposure” value in assay [1] (DOX− vs DOX+ mice, up to 5 weeks cuprizone) is listed as “does not have a significant effect”. Also, in the assay with mice with EAE (DOX− animals, lumbar spinal cord, PID50), the “number of CC1 positive oligodendrocytes” value is “significantly decreased”. In addition, the “mice that developed hind limb paralysis” value in the assay on mice with EAE (DOX− mice, PID17) is 24 of 30. Further, the “mean maximum clinical score” value in the assay on mice with EAE (DOX− mice, PID17, 0-5 point scale) is 2.69±0.69. Further, in the assay with mice with EAE (DOX− mice, PID50), the clinical score is reported as ~2 and the “mice with hind limb paralysis that continued to suffer from the paralysis” value was 12/24. Further, in the assay on mice with EAE (DOX− vs DOX+ mice), the “axonal damage (non-phosphorylated neurofilament-H immunostaining)” value is recorded as “not affected”; the “number of infiltrating T cells and macrophages in the lumbar spinal cord (CD3, CD11b)” value was “did not increase significantly”. In the assay on mice with EAE (setting [2]), the “expression of IL-17” value was “decrease”; the “expression of iNOs and IL-23” value was “did not alter”. In the assay on mice with EAE (spinal cord, DOX− compared to DOX+, PID50, real time PCR), the “expression of MHC-1, TNF-a, IL2 and IL-12” value is “increased”.
